The supplement of paper PMC10307832

Tests used:
Test in all cases: relative viability (nuclei count vs DMSO), 5 days (fraction); higher = more cells survive
BGJ398 + Linsitinib = compound: CCN1CCN(c2ccc(Nc3cc(N(C)C(=O)Nc4c(Cl)c(OC)cc(OC)c4Cl)ncn3)cc2)CC1 [BGJ398] + C[C@]1(O)C[C@@H](c2nc(-c3ccc4ccc(-c5ccccc5)nc4c3)c3c(N)nccn32)C1 [Linsitinib] (partner 1 µM)
Outline: (§1)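 Lung cancer cell lines in 1536-well plates got either a single drug or a fixed anchor-drug dose together with five library-drug doses (not always all listed) in √10 steps, by pin tool, on the day after seeding. Nuclei were counted after 5 days, and relative viability is the treated-to-vehicle ratio of nuclei counts. Values are medians of duplicate plates.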

BGJ398 + Decitabine = compound: CCN1CCN(c2ccc(Nc3cc(N(C)C(=O)Nc4c(Cl)c(OC)cc(OC)c4Cl)ncn3)cc2)CC1 [BGJ398] + Nc1ncn([C@H]2C[C@H](O)[C@@H](CO)O2)c(=O)n1 [Decitabine] (partner 2 µM)
Outline: as §1

BGJ398 + Trametinib = compound: CCN1CCN(c2ccc(Nc3cc(N(C)C(=O)Nc4c(Cl)c(OC)cc(OC)c4Cl)ncn3)cc2)CC1 [BGJ398] + CC(=O)Nc1cccc(-n2c(=O)n(C3CC3)c(=O)c3c(Nc4ccc(I)cc4F)n(C)c(=O)c(C)c32)c1 [Trametinib] (partner 0.02 µM)
Outline: as §1

[1] = compound: C1=CC2=NC=CN=C2C=C1/C=C/3\C(=O)NC(=O)S3 + CCNC(=O)c1noc(-c2cc(C(C)C)c(O)cc2O)c1-c1ccc(CN2CCOCC2)cc1 [Luminespib] (partner 0.01 µM)
Outline: as §1

Cell Line | relative viability (BGJ398 + Linsitinib; first compound 0.01 µM) | relative viability (BGJ398 + Linsitinib; first compound 0.03162 µM) | relative viability (BGJ398 + Linsitinib; first compound 0.1 µM) | relative viability (BGJ398 + Linsitinib; first compound 0.3162 µM) | relative viability (BGJ398 + Linsitinib; first compound 1 µM) | relative viability (BGJ398 + Decitabine; first compound 0.01 µM) | relative viability (BGJ398 + Decitabine; first compound 0.03162 µM) | relative viability (BGJ398 + Decitabine; first compound 0.1 µM) | relative viability (BGJ398 + Decitabine; first compound 0.3162 µM) | relative viability (BGJ398 + Decitabine; first compound 1 µM) | relative viability (BGJ398 + Trametinib; first compound 0.01 µM) | relative viability (BGJ398 + Trametinib; first compound 0.03162 µM) | relative viability (BGJ398 + Trametinib; first compound 0.1 µM) | relative viability (BGJ398 + Trametinib; first compound 0.3162 µM) | relative viability (BGJ398 + Trametinib; first compound 1 µM) | relative viability ([1]; first compound 0.02 µM) | relative viability ([1]; first compound 0.06325 µM) | relative viability ([1]; first compound 0.2 µM) | relative viability ([1]; first compound 0.6325 µM) | relative viability ([1]; first compound 2 µM)
NCI-H2023 | 0.602 | 0.831 | 0.657 | 0.688 | 0.646 | 0.197 | 0.226 | 0.23 | 0.218 | 0.211 | 0.615 | 0.566 | 0.473 | 0.522 | 0.541 | 0.701 | 0.713 | 0.773 | 0.757 | 0.745
NCI-H2085 | 0.872 | 0.943 | 0.975 | 1.01 | 0.934 | 0.528 | 0.578 | 0.544 | 0.535 | 0.547 | 0.498 | 0.525 | 0.505 | 0.705 | 0.502 | 0.489 | 0.44 | 0.435 | 0.452 | 0.428
NCI-H2087 | 0.973 | 0.886 | 0.988 | 0.922 | 0.881 | 0.178 | 0.288 | 0.263 | 0.325 | 0.234 | 0.142 | 0.22 | 0.188 | 0.197 | 0.189 | 0.169 | 0.208 | 0.227 | 0.173 | 0.203
NCI-H2126 | 0.688 | 0.692 | 0.713 | 0.739 | 0.746 | 0.608 | 0.601 | 0.611 | 0.612 | 0.566 | 0.609 | 0.531 | 0.615 | 0.629 | 0.567 | 0.86 | 1.12 | 0.866 | 0.83 | 0.601
NCI-H2347 | 0.989 | 1.08 | 0.975 | 0.968 | 1 | 0.608 | 0.621 | 0.612 | 0.621 | 0.563 | 0.32 | 0.239 | 0.275 | 0.309 | 0.259 | 0.38 | 0.288 | 0.548 | 0.354 | 0.431
NCI-H2405 | 0.863 | 0.892 | 0.982 | 1.07 | 1.01 | 0.703 | 0.74 | 0.81 | 0.734 | 0.741 | 0.495 | 0.654 | 0.622 | 0.463 | 0.59 | 0.783 | 0.598 | 0.6 | 0.699 | 0.424
NCI-H3122 | 1 | 1.06 | 0.997 | 1.05 | 1.02 | 0.394 | 0.416 | 0.458 | 0.478 | 0.42 | 0.204 | 0.223 | 0.245 | 0.19 | 0.264 | 0.0669 | 0.0861 | 0.11 | 0.0884 | 0.106
PC-3 [JPC-3] | 1.01 | – | 0.959 | 0.864 | 1.01 | 0.782 | – | 0.777 | – | 0.878 | 0.75 | – | 0.787 | – | 0.782 | 0.704 | 0.767 | 0.732 | 0.687 | 0.813
PC-14 | 0.902 | 1.05 | 0.902 | 1 | 1.06 | 0.179 | 0.148 | 0.252 | 0.193 | 0.135 | 0.762 | 0.821 | 0.735 | – | 0.903 | 0.145 | 0.19 | 0.195 | 0.193 | 0.152
RERF-LC-KJ | 0.863 | 0.894 | 0.901 | 0.865 | 0.945 | 0.66 | 0.79 | 0.765 | 0.739 | 0.642 | 0.854 | 0.864 | 0.962 | 0.87 | 0.953 | 1.2 | 1.52 | 1.23 | 1.14 | 1.28
SK-LU-1 | 1.1 | 1.01 | 1.2 | 1.15 | 1.21 | 0.62 | 0.572 | 0.761 | 0.527 | 0.584 | 0.446 | 0.669 | 0.454 | 0.52 | 0.229 | 0.203 | 0.2 | 0.19 | 0.202 | 0.221
SK-MES-1 | 1.01 | 1.12 | 1.09 | 1.01 | 1.11 | 0.377 | 0.345 | 0.41 | 0.349 | 0.321 | 0.525 | 0.591 | 0.534 | 0.574 | 0.63 | 0.645 | 0.876 | 0.877 | 0.779 | 0.852
SW 1573 | 0.859 | 0.894 | 0.886 | 0.812 | 0.933 | 0.501 | 0.557 | 0.478 | 0.498 | 0.466 | 0.477 | 0.587 | 0.455 | 0.448 | 0.47 | 0.492 | 0.267 | 0.222 | 0.762 | 0.208
